Data as given in ChEMBL document CHEMBL1137759, “Design, parallel synthesis, and crystal structures of biphenyl antithrombotics as selective inhibitors of tissue factor FVIIa complex. Part 1: Exploration of S2 pocket pharmacophores” (Bioorg Med Chem, 2009).

Target: Coagulation factor VII/tissue factor (Homo sapiens, UniProt P08709)
Assay: Inhibition of tissue factor/factor 7a
Format: protein-complex assay

Coagulation factor VII/tissue factor, sequence (P08709 61-212 limits assumed): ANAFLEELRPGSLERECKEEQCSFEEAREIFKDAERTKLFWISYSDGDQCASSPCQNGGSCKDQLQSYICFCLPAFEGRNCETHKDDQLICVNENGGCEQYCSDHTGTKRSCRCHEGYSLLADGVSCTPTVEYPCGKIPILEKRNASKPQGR
Coagulation factor VII/tissue factor, sequence (P08709 213-466 limits assumed): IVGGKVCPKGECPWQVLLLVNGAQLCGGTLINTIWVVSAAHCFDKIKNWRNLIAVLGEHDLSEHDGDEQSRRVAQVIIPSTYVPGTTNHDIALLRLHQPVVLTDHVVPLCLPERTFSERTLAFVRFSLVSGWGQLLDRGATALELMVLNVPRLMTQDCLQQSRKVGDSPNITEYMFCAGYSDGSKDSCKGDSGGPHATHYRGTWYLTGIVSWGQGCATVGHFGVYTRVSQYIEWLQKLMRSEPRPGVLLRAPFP
Coagulation factor VII/tissue factor, sequence (P13726 33-295 partner limits assumed): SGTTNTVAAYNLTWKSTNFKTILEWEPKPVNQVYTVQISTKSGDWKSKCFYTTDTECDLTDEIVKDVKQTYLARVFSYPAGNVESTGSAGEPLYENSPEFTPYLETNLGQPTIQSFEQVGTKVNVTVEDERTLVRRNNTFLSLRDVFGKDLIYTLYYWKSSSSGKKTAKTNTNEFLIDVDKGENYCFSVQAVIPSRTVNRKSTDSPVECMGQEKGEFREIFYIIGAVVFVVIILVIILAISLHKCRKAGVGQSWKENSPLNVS

Row | Compound | IC50
1 | COc1ccc(-c2ccc(C(=O)NCC(C)C)cc2C(=O)O)c(C(=O)Nc2ccc(C(=N)N)cc2)c1 | 30 nM
2 | CC#Cc1ccc(-c2ccc(C(=O)NCC(C)C)cc2C(=O)O)c(C(=O)Nc2ccc(C(=N)N)cc2)c1 | 34 nM
3 | CC(C)CNC(=O)c1ccc(-c2ccc(-c3cccnc3)cc2C(=O)Nc2ccc(C(=N)N)cc2)c(C(=O)O)c1 | 546 nM
4 | C=C(C)/C=C\c1ccc(-c2ccc(C(=O)NCC(C)C)cc2C(=O)O)c(C(=O)Nc2ccc(C(=N)N)cc2)c1 | 130 nM
5 | CC(C)CNC(=O)c1ccc(-c2ccc(-c3ccsc3)cc2C(=O)Nc2ccc(C(=N)N)cc2)c(C(=O)O)c1 | 10 nM
6 | CC(C)CNC(=O)c1ccc(-c2ccc(-c3ccsc3CO)cc2C(=O)Nc2ccc(C(=N)N)cc2)c(C(=O)O)c1 | 36 nM
7 | CC(C)CNC(=O)c1ccc(-c2ccc(C(O)CO)cc2C(=O)Nc2ccc(C(=N)N)cc2)c(C(=O)O)c1 (stereo not drawn) | 1610 nM
8 | CC(C)CNC(=O)c1ccc(-c2ccc(-c3ccc(CO)s3)cc2C(=O)Nc2ccc(C(=N)N)cc2)c(C(=O)O)c1 | 650 nM
9 | CC(C)CNC(=O)c1ccc(-c2ccc(C#CC(C)(C)O)cc2C(=O)Nc2ccc(C(=N)N)cc2)c(C(=O)O)c1 | 926 nM
10 | C=C=Cc1ccc(-c2ccc(C(=O)NCC(C)C)cc2C(=O)O)c(C(=O)Nc2ccc(C(=N)N)cc2)c1 | 9 nM
11 | CC(C)CNC(=O)c1ccc(-c2ccc(-c3occc3CO)cc2C(=O)Nc2ccc(C(=N)N)cc2)c(C(=O)O)c1 | 24 nM

Target: Prothrombin (Homo sapiens, UniProt P00734)
Assay: Inhibition of thrombin

Row | Compound | IC50
12 | COc1ccc(-c2ccc(C(=O)NCC(C)C)cc2C(=O)O)c(C(=O)Nc2ccc(C(=N)N)cc2)c1 | 14900 nM
13 | CC#Cc1ccc(-c2ccc(C(=O)NCC(C)C)cc2C(=O)O)c(C(=O)Nc2ccc(C(=N)N)cc2)c1 | 50000 nM
14 | CC(C)CNC(=O)c1ccc(-c2ccc(-c3cccnc3)cc2C(=O)Nc2ccc(C(=N)N)cc2)c(C(=O)O)c1 | 50000 nM
15 | CC(C)CNC(=O)c1ccc(-c2ccc(-c3ccsc3)cc2C(=O)Nc2ccc(C(=N)N)cc2)c(C(=O)O)c1 | 15000 nM
16 | CC(C)CNC(=O)c1ccc(-c2ccc(-c3ccsc3CO)cc2C(=O)Nc2ccc(C(=N)N)cc2)c(C(=O)O)c1 | 50000 nM
17 | C=C=Cc1ccc(-c2ccc(C(=O)NCC(C)C)cc2C(=O)O)c(C(=O)Nc2ccc(C(=N)N)cc2)c1 | 28000 nM
18 | CC(C)CNC(=O)c1ccc(-c2ccc(-c3occc3CO)cc2C(=O)Nc2ccc(C(=N)N)cc2)c(C(=O)O)c1 | 50000 nM

Target: Plasminogen (Homo sapiens, UniProt P00747)
Sequence (P00747 97-580 limits assumed): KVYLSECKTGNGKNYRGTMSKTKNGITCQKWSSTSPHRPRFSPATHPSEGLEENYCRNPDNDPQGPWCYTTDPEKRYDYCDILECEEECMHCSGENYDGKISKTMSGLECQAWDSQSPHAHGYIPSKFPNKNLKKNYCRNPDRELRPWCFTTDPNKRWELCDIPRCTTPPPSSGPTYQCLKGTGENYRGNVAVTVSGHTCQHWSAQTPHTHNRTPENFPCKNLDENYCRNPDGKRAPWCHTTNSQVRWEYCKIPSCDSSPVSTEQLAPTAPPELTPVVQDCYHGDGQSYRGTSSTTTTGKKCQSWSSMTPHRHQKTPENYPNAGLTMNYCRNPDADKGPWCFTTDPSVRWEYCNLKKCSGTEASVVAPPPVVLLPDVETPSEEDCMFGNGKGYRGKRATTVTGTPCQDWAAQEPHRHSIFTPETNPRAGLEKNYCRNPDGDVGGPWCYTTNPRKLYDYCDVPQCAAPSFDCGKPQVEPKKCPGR
Sequence (P00747 581-810 limits assumed): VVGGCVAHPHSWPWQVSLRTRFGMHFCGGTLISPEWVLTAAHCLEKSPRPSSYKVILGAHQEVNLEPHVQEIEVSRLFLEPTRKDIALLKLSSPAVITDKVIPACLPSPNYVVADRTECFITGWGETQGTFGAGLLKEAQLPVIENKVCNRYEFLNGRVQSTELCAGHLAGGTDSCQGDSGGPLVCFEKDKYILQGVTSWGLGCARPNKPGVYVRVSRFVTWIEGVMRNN
Assay: Inhibition of plasmin

Row | Compound | IC50
19 | COc1ccc(-c2ccc(C(=O)NCC(C)C)cc2C(=O)O)c(C(=O)Nc2ccc(C(=N)N)cc2)c1 | 14400 nM
20 | CC#Cc1ccc(-c2ccc(C(=O)NCC(C)C)cc2C(=O)O)c(C(=O)Nc2ccc(C(=N)N)cc2)c1 | 127 nM
21 | CC(C)CNC(=O)c1ccc(-c2ccc(-c3ccsc3)cc2C(=O)Nc2ccc(C(=N)N)cc2)c(C(=O)O)c1 | 35 nM
22 | CC(C)CNC(=O)c1ccc(-c2ccc(-c3ccsc3CO)cc2C(=O)Nc2ccc(C(=N)N)cc2)c(C(=O)O)c1 | 408 nM
23 | CC(C)CNC(=O)c1ccc(-c2ccc(-c3occc3CO)cc2C(=O)Nc2ccc(C(=N)N)cc2)c(C(=O)O)c1 | 1070 nM

System: not listed separately
Assay: Selectivity ratio of IC50 for tissue factor/factor 7a to IC50 for trypsin

Row | Compound | Ratio IC50
24 | COc1ccc(-c2ccc(C(=O)NCC(C)C)cc2C(=O)O)c(C(=O)Nc2ccc(C(=N)N)cc2)c1 | 25.3
25 | CC#Cc1ccc(-c2ccc(C(=O)NCC(C)C)cc2C(=O)O)c(C(=O)Nc2ccc(C(=N)N)cc2)c1 | 48.8
26 | CC(C)CNC(=O)c1ccc(-c2ccc(-c3cccnc3)cc2C(=O)Nc2ccc(C(=N)N)cc2)c(C(=O)O)c1 | 5.5
27 | CC(C)CNC(=O)c1ccc(-c2ccc(-c3ccsc3)cc2C(=O)Nc2ccc(C(=N)N)cc2)c(C(=O)O)c1 | 37.7
28 | CC(C)CNC(=O)c1ccc(-c2ccc(-c3ccsc3CO)cc2C(=O)Nc2ccc(C(=N)N)cc2)c(C(=O)O)c1 | 84.4
29 | C=C=Cc1ccc(-c2ccc(C(=O)NCC(C)C)cc2C(=O)O)c(C(=O)Nc2ccc(C(=N)N)cc2)c1 | 59.8
30 | CC(C)CNC(=O)c1ccc(-c2ccc(-c3occc3CO)cc2C(=O)Nc2ccc(C(=N)N)cc2)c(C(=O)O)c1 | 32.1

Target: Coagulation factor X (Homo sapiens, UniProt P00742)
Sequence (P00742 41-179 limits assumed): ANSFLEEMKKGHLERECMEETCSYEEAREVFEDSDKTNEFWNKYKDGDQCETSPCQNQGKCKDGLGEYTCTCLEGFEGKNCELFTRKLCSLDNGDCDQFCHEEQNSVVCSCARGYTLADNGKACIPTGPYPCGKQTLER
Sequence (P00742 235-488 limits assumed): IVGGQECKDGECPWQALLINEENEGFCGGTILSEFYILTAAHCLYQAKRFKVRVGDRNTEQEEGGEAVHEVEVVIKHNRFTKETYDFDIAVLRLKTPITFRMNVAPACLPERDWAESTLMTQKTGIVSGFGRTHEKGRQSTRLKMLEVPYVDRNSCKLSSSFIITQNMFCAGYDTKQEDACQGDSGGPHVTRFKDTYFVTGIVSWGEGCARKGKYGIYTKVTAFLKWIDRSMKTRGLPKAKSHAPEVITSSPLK

Row | Compound | IC50
31 | COc1ccc(-c2ccc(C(=O)NCC(C)C)cc2C(=O)O)c(C(=O)Nc2ccc(C(=N)N)cc2)c1 | 6630 nM
32 | CC#Cc1ccc(-c2ccc(C(=O)NCC(C)C)cc2C(=O)O)c(C(=O)Nc2ccc(C(=N)N)cc2)c1 | 5220 nM
33 | CC(C)CNC(=O)c1ccc(-c2ccc(-c3cccnc3)cc2C(=O)Nc2ccc(C(=N)N)cc2)c(C(=O)O)c1 | 36500 nM
34 | C=C(C)/C=C\c1ccc(-c2ccc(C(=O)NCC(C)C)cc2C(=O)O)c(C(=O)Nc2ccc(C(=N)N)cc2)c1 | 310 nM
35 | CC(C)CNC(=O)c1ccc(-c2ccc(-c3ccsc3)cc2C(=O)Nc2ccc(C(=N)N)cc2)c(C(=O)O)c1 | 40 nM
36 | CC(C)CNC(=O)c1ccc(-c2ccc(-c3ccsc3CO)cc2C(=O)Nc2ccc(C(=N)N)cc2)c(C(=O)O)c1 | 450 nM
37 | C=C=Cc1ccc(-c2ccc(C(=O)NCC(C)C)cc2C(=O)O)c(C(=O)Nc2ccc(C(=N)N)cc2)c1 | 1500 nM
38 | CC(C)CNC(=O)c1ccc(-c2ccc(-c3occc3CO)cc2C(=O)Nc2ccc(C(=N)N)cc2)c(C(=O)O)c1 | 150 nM
